Measured values: PubChem BioAssay (NCI)
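Each compound was tested at five concentrations against cells in 96-well plates for 48 hours. GI50 is the concentration that inhibits growth by half. Definition used: TGI = concentration required for complete inhibition of growth.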

How the values were obtained:
Test in all cases: growth of human tumour cells (NCI), 48 h
SK-MEL-2 melanoma = system: SK-MEL-2 melanoma
SN12C renal = system: SN12C renal
TK-10 renal = system: TK-10 renal
SW-620 colon = system: SW-620 colon
MCF7 breast = system: MCF7 breast
UACC-257 melanoma = system: UACC-257 melanoma
LOX IMVI melanoma = system: LOX IMVI melanoma
HS 578T breast = system: HS 578T breast
NCI-H226 lung = system: NCI-H226 lung
SF-268 CNS = system: SF-268 CNS
SK-OV-3 ovarian = system: SK-OV-3 ovarian
U251 CNS = system: U251 CNS
MOLT-4 leukemia = system: MOLT-4 leukemia
UACC-62 melanoma = system: UACC-62 melanoma
786-0 renal = system: 786-0 renal
MDA-MB-468 breast = system: MDA-MB-468 breast
SF-295 CNS = system: SF-295 CNS
NCI-H522 lung = system: NCI-H522 lung
SK-MEL-5 melanoma = system: SK-MEL-5 melanoma
NCI-H460 lung = system: NCI-H460 lung
OVCAR-5 ovarian = system: OVCAR-5 ovarian
SNB-75 CNS = system: SNB-75 CNS
SK-MEL-28 melanoma = system: SK-MEL-28 melanoma
PC-3 prostate = system: PC-3 prostate
EKVX NSCLC = system: EKVX NSCLC
A549 NSCLC = system: A549 NSCLC
HCC-2998 colon = system: HCC-2998 colon
A498 renal = system: A498 renal
KM12 colon = system: KM12 colon
COLO 205 colon = system: COLO 205 colon
HCT-15 colon = system: HCT-15 colon
K-562 leukemia = system: K-562 leukemia
CAKI-1 renal = system: CAKI-1 renal
HOP-62 NSCLC = system: HOP-62 NSCLC
OVCAR-8 ovarian = system: OVCAR-8 ovarian
OVCAR-3 ovarian = system: OVCAR-3 ovarian
OVCAR-4 ovarian = system: OVCAR-4 ovarian
HOP-92 NSCLC = system: HOP-92 NSCLC
IGROV1 ovarian = system: IGROV1 ovarian
MALME-3M melanoma = system: MALME-3M melanoma
ACHN renal = system: ACHN renal
NCI-H23 lung = system: NCI-H23 lung
RXF 393 renal = system: RXF 393 renal
DU-145 prostate = system: DU-145 prostate
HT29 colon = system: HT29 colon
HL-60(TB) leukemia = system: HL-60(TB) leukemia
BT-549 breast = system: BT-549 breast
M14 melanoma = system: M14 melanoma
MDA-MB-435 = system: MDA-MB-435
SF-539 CNS = system: SF-539 CNS

What does the source list for `C=C1CC[C@@H]2[C@]3(C)COC(c4cn[nH]c4-c4cccc(Br)c4)O[C@@H]3CC[C@@]2(C)[C@@H]1C/C=C1/C(=O)OCC1O` (stereo not given in full)?
GI50 (SK-MEL-2 melanoma): 2.55 µM; TGI (SK-MEL-2 melanoma): 5.59 µM; GI50 (SN12C renal): 2.03 µM; TGI (SN12C renal): 4.78 µM; GI50 (TK-10 renal): 5.1 µM; TGI (TK-10 renal): 18.9 µM; GI50 (SW-620 colon): 2.22 µM; TGI (SW-620 colon): 5.05 µM; GI50 (MCF7 breast): 1.28 µM; TGI (MCF7 breast): 3.95 µM; GI50 (UACC-257 melanoma): 2.85 µM; TGI (UACC-257 melanoma): 9.7 µM; GI50 (LOX IMVI melanoma): 1.39 µM; TGI (LOX IMVI melanoma): 2.7 µM; GI50 (HS 578T breast): 5.27 µM; TGI (HS 578T breast): 59.4 µM; GI50 (NCI-H226 lung): 1.62 µM; TGI (NCI-H226 lung): 3.09 µM; GI50 (SF-268 CNS): 12.6 µM; TGI (SF-268 CNS): 40.3 µM; GI50 (SK-OV-3 ovarian): 5.8 µM; TGI (SK-OV-3 ovarian): 21.4 µM; GI50 (U251 CNS): 1.81 µM; TGI (U251 CNS): 3.36 µM; GI50 (MOLT-4 leukemia): 2.29 µM; TGI (MOLT-4 leukemia): 18.7 µM; GI50 (UACC-62 melanoma): 1.55 µM; TGI (UACC-62 melanoma): 3.15 µM; GI50 (786-0 renal): 1.92 µM; TGI (786-0 renal): 3.6 µM; GI50 (MDA-MB-468 breast): 1.61 µM; TGI (MDA-MB-468 breast): 3.22 µM; GI50 (SF-295 CNS): 1.83 µM; TGI (SF-295 CNS): 3.99 µM; GI50 (NCI-H522 lung): 1.9 µM; TGI (NCI-H522 lung): 3.77 µM; GI50 (SK-MEL-5 melanoma): 1.75 µM; TGI (SK-MEL-5 melanoma): 3.19 µM; GI50 (NCI-H460 lung): 2.43 µM; TGI (NCI-H460 lung): 6.29 µM; GI50 (OVCAR-5 ovarian): 2.14 µM; TGI (OVCAR-5 ovarian): 4.72 µM; GI50 (SNB-75 CNS): 2.45 µM; TGI (SNB-75 CNS): 7.86 µM; GI50 (SK-MEL-28 melanoma): 1.93 µM; TGI (SK-MEL-28 melanoma): 3.83 µM; GI50 (PC-3 prostate): 3.07 µM; TGI (PC-3 prostate): 11.6 µM; GI50 (EKVX NSCLC): 2.15 µM; TGI (EKVX NSCLC): 4.81 µM; GI50 (A549 NSCLC): 3.37 µM; TGI (A549 NSCLC): 14.1 µM; GI50 (HCC-2998 colon): 1.87 µM; TGI (HCC-2998 colon): 3.53 µM; GI50 (A498 renal): 20.8 µM; TGI (A498 renal): 35.4 µM; GI50 (KM12 colon): 2.44 µM; TGI (KM12 colon): 6.13 µM; GI50 (COLO 205 colon): 2.18 µM; TGI (COLO 205 colon): 4.48 µM; GI50 (HCT-15 colon): 1.66 µM; TGI (HCT-15 colon): 3.78 µM; GI50 (K-562 leukemia): 1.93 µM; TGI (K-562 leukemia): 8.65 µM; GI50 (CAKI-1 renal): 2.77 µM; TGI (CAKI-1 renal): 7.05 µM; GI50 (HOP-62 NSCLC): 3.78 µM; TGI (HOP-62 NSCLC): 13.7 µM; GI50 (OVCAR-8 ovarian): 1.88 µM; TGI (OVCAR-8 ovarian): 6.17 µM; GI50 (OVCAR-3 ovarian): 2.02 µM; TGI (OVCAR-3 ovarian): 3.99 µM; GI50 (OVCAR-4 ovarian): 4.47 µM; TGI (OVCAR-4 ovarian): 30.1 µM; GI50 (HOP-92 NSCLC): 2.21 µM; TGI (HOP-92 NSCLC): 5.1 µM; GI50 (IGROV1 ovarian): 2.72 µM; TGI (IGROV1 ovarian): 6.46 µM; GI50 (MALME-3M melanoma): 1.93 µM; TGI (MALME-3M melanoma): 4.25 µM; GI50 (ACHN renal): 1.95 µM; TGI (ACHN renal): 3.97 µM; GI50 (NCI-H23 lung): 1.84 µM; TGI (NCI-H23 lung): 3.62 µM; GI50 (RXF 393 renal): 1.81 µM; TGI (RXF 393 renal): 3.26 µM; GI50 (DU-145 prostate): 3.08 µM; TGI (DU-145 prostate): 9.43 µM; GI50 (HT29 colon): 2.1 µM; TGI (HT29 colon): 4.82 µM; GI50 (HL-60(TB) leukemia): 1.87 µM; TGI (HL-60(TB) leukemia): 7.43 µM; GI50 (BT-549 breast): 1.44 µM; TGI (BT-549 breast): 3 µM; GI50 (M14 melanoma): 2.52 µM; TGI (M14 melanoma): 7.22 µM; GI50 (MDA-MB-435): 3.4 µM; TGI (MDA-MB-435): 14.1 µM; GI50 (SF-539 CNS): 1.74 µM; TGI (SF-539 CNS): 3.22 µM
